Results from ChEMBL document CHEMBL1157914, “5,5'-substituted indirubin-3'-oxime derivatives as potent cyclin-dependent kinase inhibitors with anticancer activity” (J Med Chem, 2010).
Calls of active or inactive are those of the source. The calls are words filed in the database; no cut-off is given here.

Tests used:
KB = assay: Antiproliferative activity against human KB cells after 3 days by SRB assay; assay type: functional, cell-based; details: 72 h
[1] = Antiproliferative activity against human […] cells after 3 days by SRB assay; assay type: functional, cell-based; details: 72 h
MCF7 = assay: Antiproliferative activity against human MCF7 cells after 3 days by SRB assay; assay type: functional, cell-based; details: MCF7, 72 h
A549 = assay: Antiproliferative activity against human A549 cells after 3 days by SRB assay; assay type: functional, cell-based; details: A549, 72 h
[2] = Selectivity ratio for CDK2/cyclinE over CDK1/cyclin B
[3] = target: Cyclin-dependent kinase 2/cyclin E1 (Homo sapiens) (UniProt P24864+P24941); assay: Inhibition of CDK2/cyclin E as percent residual activity; assay type: protein-complex assay; set-up: Residual activity / inhibition: concentration or dose not given beside the values
K562 = assay: Antiproliferative activity against human K562 cells after 3 days by SRB assay; assay type: functional, cell-based; details: K562, 72 h
HT-1080 = assay: Antiproliferative activity against human HT1080 cells after 3 days by SRB assay; assay type: functional, cell-based; details: HT-1080, 72 h
SNU-638 = assay: Antiproliferative activity against human SNU638 cells after 3 days by SRB assay; assay type: functional, cell-based; details: SNU-638, 72 h
[4] = target: Cyclin-dependent kinase 2/cyclin E1 (Homo sapiens, UniProt P24941); assay: Inhibition of CDK2/cyclin E; assay type: protein-complex assay
[5] = target: Cyclin-dependent kinase 1/cyclin B1 (Homo sapiens) (UniProt P06493+P14635); assay: Inhibition of CDK1/cyclin B at 1 uM after 40 mins by lequid scintillation counting; assay type: protein-complex assay
[6] = Solubility of compound in 2 equimolar NaOH and distilled water; assay type: physicochemical; details: buffer
[7] = Solubility of compound in 3 equimolar NaOH and distilled water; assay type: physicochemical; details: buffer
[8] = Solubility of compound in 3 equimolar NaOH and 0.1 N NaHCO3 buffer; assay type: physicochemical
[9] = Aqueous solubility of compound in water; assay type: physicochemical; details: buffer
[10] = target: Inhibitor of nuclear factor kappa-B kinase subunit beta (Homo sapiens) (UniProt O14920); assay: Inhibition of recombinant IKK-beta at 10 uM preincubated for 15 mins by HTRF assay
[11] = system: Hepatocyte growth factor receptor (Homo sapiens), P08581 [M1250T]; assay: Inhibition of recombinant Met M1250T mutant at 10 uM preincubated for 15 mins by HTRF assay
[12] = target: Aurora kinase A (Homo sapiens) (UniProt O14965); assay: Inhibition of recombinant auroraA at 10 uM preincubated for 15 mins by HTRF assay
[13] = target: Insulin receptor (Homo sapiens) (UniProt P06213); assay: Inhibition of insulin receptor at 10 uM preincubated for 15 mins by HTRF assay
[14] = target: Hepatocyte growth factor receptor (Homo sapiens) (UniProt P08581); assay: Inhibition of recombinant c-met at 10 uM preincubated for 15 mins by HTRF assay
[15] = target: High affinity nerve growth factor receptor (Homo sapiens, UniProt P04629); assay: Inhibition of recombinant TrKa at 10 uM preincubated for 15 mins by HTRF assay
[16] = target: Phosphatidylinositol 4,5-bisphosphate 3-kinase catalytic subunit gamma isoform (Homo sapiens) (UniProt P48736); assay: Inhibition of human PI3Kgamma at 10 uM preincubated for 15 mins by HTRF assay
[17] = target: Epidermal growth factor receptor (Homo sapiens) (UniProt P00533); assay: Inhibition of recombinant EGFR at 10 uM preincubated for 15 mins by HTRF assay
[18] = target: Macrophage-stimulating protein receptor (Homo sapiens) (UniProt Q04912); assay: Inhibition of recombinant Ron at 10 uM preincubated for 15 mins by HTRF assay
[19] = target: Vascular endothelial growth factor receptor 2 (Homo sapiens) (UniProt P35968); assay: Inhibition of recombinant VEGFR2 at 10 uM preincubated for 15 mins by HTRF assay

Sequence of Cyclin-dependent kinase 1/cyclin B1 (Homo sapiens) (P06493 whole entry, looked up): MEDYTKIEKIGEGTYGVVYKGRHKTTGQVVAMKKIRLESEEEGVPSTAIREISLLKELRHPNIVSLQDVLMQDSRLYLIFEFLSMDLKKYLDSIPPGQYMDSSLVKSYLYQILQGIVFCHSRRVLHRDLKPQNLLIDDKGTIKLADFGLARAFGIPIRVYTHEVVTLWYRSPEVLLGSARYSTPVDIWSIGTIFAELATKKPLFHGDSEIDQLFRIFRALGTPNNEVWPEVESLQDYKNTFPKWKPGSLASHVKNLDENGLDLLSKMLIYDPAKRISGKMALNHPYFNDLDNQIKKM
Sequence of Cyclin-dependent kinase 1/cyclin B1 (Homo sapiens) (P14635 whole entry, looked up): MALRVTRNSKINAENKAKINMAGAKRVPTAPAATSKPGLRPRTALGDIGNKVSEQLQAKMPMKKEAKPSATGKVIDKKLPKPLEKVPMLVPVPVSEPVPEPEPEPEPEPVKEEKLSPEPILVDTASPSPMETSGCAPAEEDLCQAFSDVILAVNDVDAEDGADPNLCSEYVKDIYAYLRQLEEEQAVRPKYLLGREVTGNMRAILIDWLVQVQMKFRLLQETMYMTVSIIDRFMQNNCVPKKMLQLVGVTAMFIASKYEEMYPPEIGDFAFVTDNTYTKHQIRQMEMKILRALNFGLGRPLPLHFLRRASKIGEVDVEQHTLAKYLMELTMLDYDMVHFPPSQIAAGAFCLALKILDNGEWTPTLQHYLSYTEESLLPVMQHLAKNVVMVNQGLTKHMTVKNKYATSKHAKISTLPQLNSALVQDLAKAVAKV
Sequence of Epidermal growth factor receptor (Homo sapiens) (P00533 whole entry): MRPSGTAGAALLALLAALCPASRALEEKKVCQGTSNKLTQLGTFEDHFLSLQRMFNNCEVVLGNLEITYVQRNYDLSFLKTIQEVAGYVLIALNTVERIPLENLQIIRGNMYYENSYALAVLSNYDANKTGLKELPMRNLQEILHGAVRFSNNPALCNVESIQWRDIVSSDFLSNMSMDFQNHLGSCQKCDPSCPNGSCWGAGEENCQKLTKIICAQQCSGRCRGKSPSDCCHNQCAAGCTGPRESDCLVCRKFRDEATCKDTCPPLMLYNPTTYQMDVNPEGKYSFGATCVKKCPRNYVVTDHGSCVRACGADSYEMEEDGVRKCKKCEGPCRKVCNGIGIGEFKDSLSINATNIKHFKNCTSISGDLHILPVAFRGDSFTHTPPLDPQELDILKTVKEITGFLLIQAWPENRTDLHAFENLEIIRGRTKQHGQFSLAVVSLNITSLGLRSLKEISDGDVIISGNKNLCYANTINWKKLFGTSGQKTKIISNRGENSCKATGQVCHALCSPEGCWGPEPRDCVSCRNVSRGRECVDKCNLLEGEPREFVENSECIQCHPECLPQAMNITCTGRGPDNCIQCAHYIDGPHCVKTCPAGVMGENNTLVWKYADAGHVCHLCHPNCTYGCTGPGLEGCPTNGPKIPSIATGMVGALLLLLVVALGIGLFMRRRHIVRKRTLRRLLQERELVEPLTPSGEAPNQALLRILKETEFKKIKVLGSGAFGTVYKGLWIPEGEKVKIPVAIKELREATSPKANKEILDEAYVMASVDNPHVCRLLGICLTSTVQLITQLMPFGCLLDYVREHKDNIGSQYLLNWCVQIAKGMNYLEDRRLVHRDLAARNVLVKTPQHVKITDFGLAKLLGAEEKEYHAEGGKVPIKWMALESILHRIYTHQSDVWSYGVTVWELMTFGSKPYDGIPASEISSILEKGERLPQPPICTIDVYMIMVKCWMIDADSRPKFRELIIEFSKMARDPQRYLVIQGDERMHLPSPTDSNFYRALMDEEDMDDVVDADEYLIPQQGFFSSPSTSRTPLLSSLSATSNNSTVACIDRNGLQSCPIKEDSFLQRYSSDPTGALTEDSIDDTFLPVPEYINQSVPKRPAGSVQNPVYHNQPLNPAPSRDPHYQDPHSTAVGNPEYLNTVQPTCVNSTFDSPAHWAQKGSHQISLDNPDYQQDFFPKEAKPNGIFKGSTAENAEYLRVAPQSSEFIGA
Sequence of Hepatocyte growth factor receptor (Homo sapiens) (P08581 whole entry): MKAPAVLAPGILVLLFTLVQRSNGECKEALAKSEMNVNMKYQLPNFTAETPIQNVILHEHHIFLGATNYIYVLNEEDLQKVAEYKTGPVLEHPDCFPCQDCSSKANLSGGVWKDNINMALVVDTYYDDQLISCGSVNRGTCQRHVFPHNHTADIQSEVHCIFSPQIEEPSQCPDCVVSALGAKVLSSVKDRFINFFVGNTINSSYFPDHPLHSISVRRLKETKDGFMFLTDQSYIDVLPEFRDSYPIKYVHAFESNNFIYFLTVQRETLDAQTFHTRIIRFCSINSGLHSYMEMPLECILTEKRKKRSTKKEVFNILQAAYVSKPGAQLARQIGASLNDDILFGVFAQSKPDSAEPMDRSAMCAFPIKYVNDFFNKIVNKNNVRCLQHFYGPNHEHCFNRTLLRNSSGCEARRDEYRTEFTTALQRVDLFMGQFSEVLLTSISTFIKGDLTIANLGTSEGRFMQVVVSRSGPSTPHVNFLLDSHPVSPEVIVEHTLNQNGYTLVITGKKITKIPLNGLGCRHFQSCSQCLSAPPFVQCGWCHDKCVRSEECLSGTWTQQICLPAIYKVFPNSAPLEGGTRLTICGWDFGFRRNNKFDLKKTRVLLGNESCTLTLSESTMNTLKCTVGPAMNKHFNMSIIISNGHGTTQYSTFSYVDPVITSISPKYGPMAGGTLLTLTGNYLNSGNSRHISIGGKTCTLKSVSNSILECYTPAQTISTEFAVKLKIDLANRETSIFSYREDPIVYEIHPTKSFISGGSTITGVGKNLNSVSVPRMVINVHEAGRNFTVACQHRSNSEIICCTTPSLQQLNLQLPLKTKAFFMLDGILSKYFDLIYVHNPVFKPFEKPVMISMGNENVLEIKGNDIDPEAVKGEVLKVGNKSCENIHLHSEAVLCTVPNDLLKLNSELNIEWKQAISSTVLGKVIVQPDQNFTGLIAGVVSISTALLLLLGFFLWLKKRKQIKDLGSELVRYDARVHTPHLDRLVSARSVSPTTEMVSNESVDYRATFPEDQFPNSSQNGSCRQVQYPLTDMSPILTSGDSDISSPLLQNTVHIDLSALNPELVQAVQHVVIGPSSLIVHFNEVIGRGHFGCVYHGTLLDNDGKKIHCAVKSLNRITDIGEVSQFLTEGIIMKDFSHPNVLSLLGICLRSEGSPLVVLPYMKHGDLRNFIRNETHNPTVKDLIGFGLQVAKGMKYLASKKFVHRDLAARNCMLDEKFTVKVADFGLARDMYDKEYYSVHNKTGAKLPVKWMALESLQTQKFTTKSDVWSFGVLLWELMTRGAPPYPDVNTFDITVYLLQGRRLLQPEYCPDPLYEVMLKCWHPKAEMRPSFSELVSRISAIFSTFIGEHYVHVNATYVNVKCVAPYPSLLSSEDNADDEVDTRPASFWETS
Sequence of Inhibitor of nuclear factor kappa-B kinase subunit beta (Homo sapiens) (O14920 whole entry): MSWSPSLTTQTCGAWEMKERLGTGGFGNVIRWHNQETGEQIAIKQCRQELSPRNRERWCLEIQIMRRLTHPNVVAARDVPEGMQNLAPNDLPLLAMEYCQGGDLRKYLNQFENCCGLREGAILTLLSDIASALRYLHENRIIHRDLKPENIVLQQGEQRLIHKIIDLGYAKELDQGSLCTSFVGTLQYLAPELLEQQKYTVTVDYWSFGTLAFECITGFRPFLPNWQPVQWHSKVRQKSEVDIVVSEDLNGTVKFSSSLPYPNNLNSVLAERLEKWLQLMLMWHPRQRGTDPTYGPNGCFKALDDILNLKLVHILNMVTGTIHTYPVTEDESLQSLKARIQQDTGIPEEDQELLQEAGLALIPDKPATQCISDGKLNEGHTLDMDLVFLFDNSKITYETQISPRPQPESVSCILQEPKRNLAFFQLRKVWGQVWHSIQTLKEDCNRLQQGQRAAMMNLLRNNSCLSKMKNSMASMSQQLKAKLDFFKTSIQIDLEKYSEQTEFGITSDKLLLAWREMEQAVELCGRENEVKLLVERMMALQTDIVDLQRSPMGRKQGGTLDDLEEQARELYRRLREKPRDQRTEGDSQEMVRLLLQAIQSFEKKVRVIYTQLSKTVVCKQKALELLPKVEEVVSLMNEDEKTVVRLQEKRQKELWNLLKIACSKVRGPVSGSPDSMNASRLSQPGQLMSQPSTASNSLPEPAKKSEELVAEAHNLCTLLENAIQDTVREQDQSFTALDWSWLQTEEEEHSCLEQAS
Sequence of Aurora kinase A (Homo sapiens) (O14965 whole entry): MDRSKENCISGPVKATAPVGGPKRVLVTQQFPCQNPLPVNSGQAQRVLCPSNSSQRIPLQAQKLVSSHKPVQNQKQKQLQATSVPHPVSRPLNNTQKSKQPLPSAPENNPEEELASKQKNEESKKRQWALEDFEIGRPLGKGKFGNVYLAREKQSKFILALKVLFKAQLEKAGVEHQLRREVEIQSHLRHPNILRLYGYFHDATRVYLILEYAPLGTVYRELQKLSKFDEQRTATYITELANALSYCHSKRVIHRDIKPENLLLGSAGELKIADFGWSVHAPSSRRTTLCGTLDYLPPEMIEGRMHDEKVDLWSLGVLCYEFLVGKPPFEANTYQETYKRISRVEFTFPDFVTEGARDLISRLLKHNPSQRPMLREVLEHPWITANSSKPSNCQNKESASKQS

Row | IC50 (KB) | IC50 (MCF7) | IC50 (A549) | Selectivity ratio [2] | Residual activity [3] | IC50 (K562) | IC50 (HT-1080) | IC50 (SNU-638) | IC50 [4] | Structure (SMILES) | IC50 [1] | other results
1 | 3.81 µM | 4.12 µM | 19.9 µM | 6 | 90% | 1.53 µM | 3.95 µM | 1.89 µM | 0.0603 µM | O=C1Nc2ccc(OC(F)(F)F)cc2/C1=C1/Nc2ccc(F)cc2/C1=N/O | 1.51 µM | –
2 | > 20 µM | > 20 µM | 6.71 µM | – | – | 5.29 µM | 4.84 µM | 13.6 µM | 4.12 µM | COc1ccc2c(c1)C(=N/O)/C(=C1/C(=O)Nc3ccc(F)cc31)N2 | 3.59 µM | Activity [3]: inactive; Activity [5]: inactive
3 | 10.6 µM | 10.5 µM | > 20 µM | – | 90% | > 20 µM | > 20 µM | 11.5 µM | – | Cc1ccc2c(c1)C(=N/O)/C(=C1/C(=O)Nc3ccc(F)cc31)N2 | > 20 µM | –
4 | 2.83 µM | 4.23 µM | > 20 µM | 6 | – | > 20 µM | 17.7 µM | 2.71 µM | 0.0762 µM | O=C1Nc2ccc(OC(F)(F)F)cc2/C1=C1/Nc2ccc(Cl)cc2/C1=N/O | 3.79 µM | Activity [3]: inactive; Activity [5]: inactive
5 | > 20 µM | > 20 µM | > 20 µM | – | – | > 20 µM | > 20 µM | > 20 µM | 2.95 µM | COc1ccc2c(c1)C(=N/O)/C(=C1/C(=O)Nc3ccc([N+](=O)[O-])cc31)N2 | > 20 µM | inhibition [3]: inactive; inhibition [5]: inactive
6 | 11.9 µM | 6.14 µM | > 20 µM | 6 | 90% | 17.2 µM | 12.2 µM | 2.57 µM | 0.0111 µM | O=C1Nc2ccc(Cl)cc2/C1=C1/Nc2ccc(Cl)cc2/C1=N/O | 1.86 µM | –
7 | 1.16 µM | 0.95 µM | 16.9 µM | – | – | 0.77 µM | 1.45 µM | 1.14 µM | – | O=C1Nc2ccc([N+](=O)[O-])cc2/C1=C1/Nc2ccc(Br)cc2/C1=N/O | 0.45 µM | solubility [6]: < 100 µg/mL; solubility [7]: < 100 µg/mL; solubility [8]: < 100 µg/mL; solubility [9]: Insoluble
8 | 10.2 µM | 10.7 µM | 16.4 µM | – | 90% | 12.2 µM | 2.92 µM | 5.14 µM | 0.00527 µM | O=C1Nc2ccc(Cl)cc2/C1=C1/Nc2ccc(O)cc2/C1=N/O | 3.51 µM | –
9 | 8.13 µM | 7.31 µM | > 20 µM | – | 90% | > 20 µM | > 20 µM | > 20 µM | – | Cc1ccc2c(c1)C(=N/O)/C(=C1/C(=O)Nc3ccc(OC(F)(F)F)cc31)N2 | > 20 µM | –
10 | 13.2 µM | 6.57 µM | 10.3 µM | 6 | 90% | 15.9 µM | 8.62 µM | 2.23 µM | 0.00183 µM | O=C1Nc2ccc(F)cc2/C1=C1/Nc2ccc(F)cc2/C1=N/O | 13.5 µM | –
11 | 3.62 µM | 3.52 µM | 18.9 µM | 6 | 90% | 14.7 µM | 3.62 µM | 2.28 µM | 0.0101 µM | O=C1Nc2ccc(F)cc2/C1=C1/Nc2ccc(Cl)cc2/C1=N/O | 1.72 µM | –
12 | 5.81 µM | 4.23 µM | 16.9 µM | – | 90% | 5.91 µM | 2.28 µM | 2.96 µM | 0.00832 µM | O=C1Nc2ccc(OC(F)(F)F)cc2/C1=C1/Nc2ccc(O)cc2/C1=N/O | 2.25 µM | –
13 | 5.18 µM | 8.79 µM | > 20 µM | – | 90% | > 20 µM | > 20 µM | 12.7 µM | – | Cc1ccc2c(c1)C(=N/O)/C(=C1/C(=O)Nc3ccc(Cl)cc31)N2 | 18.8 µM | –
14 | 0.92 µM | 0.91 µM | 0.57 µM | 6 | 90% | 0.46 µM | 0.64 µM | 0.94 µM | 0.00171 µM | O=C1Nc2ccc([N+](=O)[O-])cc2/C1=C1/Nc2ccc(F)cc2/C1=N/O | 0.28 µM | –
15 | 1.11 µM | 0.51 µM | 15.6 µM | 8 | 90% | 0.56 µM | 1.25 µM | 1.16 µM | 0.0235 µM | O=C1Nc2ccc([N+](=O)[O-])cc2/C1=C1/Nc2ccc(Cl)cc2/C1=N/O | 0.33 µM | inhibition [10]: inactive; inhibition [11]: inactive; inhibition [12]: inactive; inhibition [13]: inactive; inhibition [14]: inactive; inhibition [15]: inactive; inhibition [16]: inactive; inhibition [17]: inactive; inhibition [18]: inactive; inhibition [19]: inactive
16 | 20 µM | 13.2 µM | > 20 µM | – | – | > 20 µM | > 20 µM | > 20 µM | 8.62 µM | COc1ccc2c(c1)C(=N/O)/C(=C1/C(=O)Nc3ccc(OC(F)(F)F)cc31)N2 | > 20 µM | Activity [3]: inactive; Activity [5]: inactive
17 | – | – | – | – | – | – | – | – | 0.00735 µM | O=Nc1c(-c2c(O)[nH]c3ccc([N+](=O)[O-])cc23)[nH]c2ccccc12 | – | solubility [6]: < 100 µg/mL; solubility [7]: < 100 µg/mL; solubility [8]: < 100 µg/mL; solubility [9]: Insoluble
18 | 4.62 µM | 2.61 µM | 4.09 µM | – | 90% | 1.42 µM | 0.68 µM | 2.11 µM | 0.00225 µM | O=C1Nc2ccc(F)cc2/C1=C1/Nc2ccc(O)cc2/C1=N/O | 1.66 µM | –
19 | 2.11 µM | 1.06 µM | > 20 µM | 7 | 90% | 0.81 µM | 3.92 µM | 1.06 µM | 0.00868 µM | Cc1ccc2c(c1)C(=N/O)/C(=C1/C(=O)Nc3ccc([N+](=O)[O-])cc31)N2 | 1.41 µM | –
20 | 9.11 µM | 7.13 µM | > 20 µM | 6 | 90% | 7.14 µM | 5.33 µM | 6.32 µM | 0.00801 µM | O=C1Nc2ccc(Cl)cc2/C1=C1/Nc2ccc(F)cc2/C1=N/O | 3.31 µM | –
